# Measurements published in article PMC7839672, “Effect of the PHY Domain on the Photoisomerization Step of the Forward Pr→Pfr Conversion of a Knotless Phytochrome” (Chemistry (Weinheim an Der Bergstrasse, Germany), 2020).
# Target: T1, All2699g1g2 (g1g2) (Nostoc sp. PCC 7120 = FACHB-418, UniProt A0ACD6B963)
# T1 construct: gene all2699; GAF1-GAF2 (GAF-PHY) photosensory module of All2699; borders, tags and host not in main text
# Assay: steady-state absorption, CD and femtosecond transient absorption of the chromophore-bound protein
# Format: binding
# Conditions: covalent (known biology, not given); chromophore embedded in GAF1 domain; Pr and Pfr states
# T1 sequence (A0ACD6B963 1-656 limits assumed): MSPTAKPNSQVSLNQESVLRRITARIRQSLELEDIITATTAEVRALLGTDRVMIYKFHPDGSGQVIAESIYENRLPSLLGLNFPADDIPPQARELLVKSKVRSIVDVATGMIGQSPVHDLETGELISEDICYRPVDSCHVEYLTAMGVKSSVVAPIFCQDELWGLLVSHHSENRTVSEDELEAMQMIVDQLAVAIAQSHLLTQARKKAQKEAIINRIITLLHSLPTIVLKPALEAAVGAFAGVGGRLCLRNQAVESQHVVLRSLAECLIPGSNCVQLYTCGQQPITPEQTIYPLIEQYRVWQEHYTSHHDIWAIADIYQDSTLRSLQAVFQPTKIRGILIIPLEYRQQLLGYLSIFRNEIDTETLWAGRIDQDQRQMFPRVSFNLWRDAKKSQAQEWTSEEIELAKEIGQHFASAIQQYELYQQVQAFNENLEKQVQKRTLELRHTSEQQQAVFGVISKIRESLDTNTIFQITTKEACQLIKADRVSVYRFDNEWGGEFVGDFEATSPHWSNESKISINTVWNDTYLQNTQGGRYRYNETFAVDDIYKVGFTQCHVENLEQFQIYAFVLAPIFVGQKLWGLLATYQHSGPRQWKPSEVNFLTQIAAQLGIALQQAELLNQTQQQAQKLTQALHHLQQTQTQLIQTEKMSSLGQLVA
compound,measurement,value
"C/C=C1/C(=C/C2=NC(=C\c3[nH]c(/C=C4\NC(=O)C(CC)=C4C)c(C)c3CCC(=O)O)/C(CCC(=O)O)=C2C)NC(=O)[C@@H]1C [PCB, phycocyanobilin]","steady-state absorption, CD and femtosecond transient absorption of the chromoph",interactions of the PCB chromophore with the “tongue” region of the g2 domain in g1g2
